Values joined by “and” are separate entries in the source; they are usually repeats but may differ in a detail not shown here. Equal entries are not always repeated.
Legend:
A375 = test: Cell proliferation assay (MTS); assay type: cell-based; settings: Homo sapiens, A-375; Melanoma
BAZ2B = target: T1, BAZ2B (Homo sapiens, UniProt Q9UIF8); test: Epigenetics selectivity panel (BPS Bioscience); assay type: binding
T1 construct: purchased DiscoverX KINOMEscan (kinases); BPS Bioscience (epigenetic targets)
T1 sequence (Q9UIF8 whole entry): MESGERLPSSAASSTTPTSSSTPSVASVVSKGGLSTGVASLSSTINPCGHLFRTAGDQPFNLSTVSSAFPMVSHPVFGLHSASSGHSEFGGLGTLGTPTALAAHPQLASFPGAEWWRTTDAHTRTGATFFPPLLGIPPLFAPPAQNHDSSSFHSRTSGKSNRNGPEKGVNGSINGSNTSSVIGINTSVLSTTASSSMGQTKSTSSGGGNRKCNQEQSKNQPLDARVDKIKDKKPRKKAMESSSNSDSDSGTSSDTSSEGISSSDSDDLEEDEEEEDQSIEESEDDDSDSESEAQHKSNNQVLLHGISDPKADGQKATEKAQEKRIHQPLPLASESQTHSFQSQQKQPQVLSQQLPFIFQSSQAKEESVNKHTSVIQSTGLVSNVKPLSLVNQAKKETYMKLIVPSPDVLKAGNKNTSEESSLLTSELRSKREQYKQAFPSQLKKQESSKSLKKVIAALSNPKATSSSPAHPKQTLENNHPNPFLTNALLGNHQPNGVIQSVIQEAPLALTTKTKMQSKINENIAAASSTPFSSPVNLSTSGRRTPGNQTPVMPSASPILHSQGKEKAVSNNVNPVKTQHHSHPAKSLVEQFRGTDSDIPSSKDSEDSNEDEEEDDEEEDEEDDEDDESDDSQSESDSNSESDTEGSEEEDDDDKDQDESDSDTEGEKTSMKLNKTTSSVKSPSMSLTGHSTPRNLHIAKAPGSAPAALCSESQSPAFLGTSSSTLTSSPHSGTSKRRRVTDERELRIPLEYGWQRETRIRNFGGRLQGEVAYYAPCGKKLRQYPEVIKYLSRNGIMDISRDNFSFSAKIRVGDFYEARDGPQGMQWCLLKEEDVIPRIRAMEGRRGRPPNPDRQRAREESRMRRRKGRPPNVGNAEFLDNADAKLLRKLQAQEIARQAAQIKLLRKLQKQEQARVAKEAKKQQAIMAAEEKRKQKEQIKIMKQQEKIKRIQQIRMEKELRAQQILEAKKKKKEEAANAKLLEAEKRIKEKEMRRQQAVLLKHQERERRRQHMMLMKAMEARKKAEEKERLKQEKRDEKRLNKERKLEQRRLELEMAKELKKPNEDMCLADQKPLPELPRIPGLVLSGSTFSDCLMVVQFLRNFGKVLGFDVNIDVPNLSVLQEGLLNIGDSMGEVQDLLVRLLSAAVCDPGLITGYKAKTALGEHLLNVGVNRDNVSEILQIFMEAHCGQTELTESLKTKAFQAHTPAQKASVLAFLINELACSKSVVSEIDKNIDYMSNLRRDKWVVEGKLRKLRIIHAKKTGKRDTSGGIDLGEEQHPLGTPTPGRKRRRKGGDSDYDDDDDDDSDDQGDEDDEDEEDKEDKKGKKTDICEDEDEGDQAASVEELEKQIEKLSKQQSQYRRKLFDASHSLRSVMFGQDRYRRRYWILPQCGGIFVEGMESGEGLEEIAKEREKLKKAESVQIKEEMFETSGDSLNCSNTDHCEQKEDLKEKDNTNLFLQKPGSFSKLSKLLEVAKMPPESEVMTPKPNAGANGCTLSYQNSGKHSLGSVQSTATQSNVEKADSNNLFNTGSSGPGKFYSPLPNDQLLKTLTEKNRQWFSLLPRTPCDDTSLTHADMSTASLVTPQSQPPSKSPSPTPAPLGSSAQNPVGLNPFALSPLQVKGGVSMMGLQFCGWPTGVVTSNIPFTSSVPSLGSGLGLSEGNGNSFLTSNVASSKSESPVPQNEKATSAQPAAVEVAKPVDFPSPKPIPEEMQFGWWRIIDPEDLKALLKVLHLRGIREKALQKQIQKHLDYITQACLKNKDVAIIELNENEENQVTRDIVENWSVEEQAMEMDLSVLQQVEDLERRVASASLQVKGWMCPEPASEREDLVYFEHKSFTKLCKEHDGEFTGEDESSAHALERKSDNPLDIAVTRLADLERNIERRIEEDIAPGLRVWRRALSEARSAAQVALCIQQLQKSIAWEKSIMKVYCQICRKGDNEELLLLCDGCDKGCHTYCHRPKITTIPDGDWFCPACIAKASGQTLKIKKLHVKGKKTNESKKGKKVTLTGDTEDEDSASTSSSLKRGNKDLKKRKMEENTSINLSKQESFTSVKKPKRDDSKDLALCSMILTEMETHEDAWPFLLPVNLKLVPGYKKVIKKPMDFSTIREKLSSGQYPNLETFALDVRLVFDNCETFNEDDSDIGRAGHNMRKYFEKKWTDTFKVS

HEL = test: Cell proliferation assay (MTS); assay type: cell-based; settings: Homo sapiens, AML, 48 h
NALM-20 = test: Cell proliferation assay (MTS); assay type: cell-based; settings: Homo sapiens; ALL, 48 h
JMJD2A = target: T2, JMJD2A (Homo sapiens, UniProt O75164); test: Epigenetics selectivity panel (BPS Bioscience); assay type: biochemical
T2 construct: purchased DiscoverX KINOMEscan (kinases); BPS Bioscience (epigenetic targets)
T2 sequence (O75164 whole entry): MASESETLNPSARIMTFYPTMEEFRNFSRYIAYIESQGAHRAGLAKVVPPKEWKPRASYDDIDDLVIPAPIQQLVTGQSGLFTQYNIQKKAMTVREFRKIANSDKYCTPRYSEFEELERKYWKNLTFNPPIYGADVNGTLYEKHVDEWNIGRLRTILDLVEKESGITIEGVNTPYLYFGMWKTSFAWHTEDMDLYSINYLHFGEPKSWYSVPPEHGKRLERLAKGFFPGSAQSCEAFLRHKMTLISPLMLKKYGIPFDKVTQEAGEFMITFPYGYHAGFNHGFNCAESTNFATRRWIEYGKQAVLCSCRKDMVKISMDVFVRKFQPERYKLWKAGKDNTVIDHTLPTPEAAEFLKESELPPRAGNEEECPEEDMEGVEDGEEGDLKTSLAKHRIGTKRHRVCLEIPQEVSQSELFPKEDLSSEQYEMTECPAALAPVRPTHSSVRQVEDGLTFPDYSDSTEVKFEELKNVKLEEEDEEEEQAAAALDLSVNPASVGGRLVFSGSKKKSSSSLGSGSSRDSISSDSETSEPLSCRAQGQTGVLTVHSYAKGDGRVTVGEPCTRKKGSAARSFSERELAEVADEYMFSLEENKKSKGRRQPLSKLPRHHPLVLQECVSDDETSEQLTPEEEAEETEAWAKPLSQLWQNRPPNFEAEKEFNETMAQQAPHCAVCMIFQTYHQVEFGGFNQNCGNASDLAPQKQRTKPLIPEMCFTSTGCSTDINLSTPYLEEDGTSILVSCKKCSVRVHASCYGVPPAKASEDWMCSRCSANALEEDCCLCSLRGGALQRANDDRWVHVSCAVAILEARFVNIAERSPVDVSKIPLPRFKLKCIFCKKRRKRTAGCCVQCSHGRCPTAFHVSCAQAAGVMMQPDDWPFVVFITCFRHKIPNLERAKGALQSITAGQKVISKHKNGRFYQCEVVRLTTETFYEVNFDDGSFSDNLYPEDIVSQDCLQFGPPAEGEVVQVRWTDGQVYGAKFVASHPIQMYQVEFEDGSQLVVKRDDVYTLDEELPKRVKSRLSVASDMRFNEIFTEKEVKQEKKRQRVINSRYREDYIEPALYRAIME

TRIM24 = target: T3, TRIM24 (Homo sapiens, UniProt O15164); test: Epigenetics selectivity panel (BPS Bioscience); assay type: binding
T3 construct: purchased DiscoverX KINOMEscan (kinases); BPS Bioscience (epigenetic targets)
T3 sequence (O15164 whole entry): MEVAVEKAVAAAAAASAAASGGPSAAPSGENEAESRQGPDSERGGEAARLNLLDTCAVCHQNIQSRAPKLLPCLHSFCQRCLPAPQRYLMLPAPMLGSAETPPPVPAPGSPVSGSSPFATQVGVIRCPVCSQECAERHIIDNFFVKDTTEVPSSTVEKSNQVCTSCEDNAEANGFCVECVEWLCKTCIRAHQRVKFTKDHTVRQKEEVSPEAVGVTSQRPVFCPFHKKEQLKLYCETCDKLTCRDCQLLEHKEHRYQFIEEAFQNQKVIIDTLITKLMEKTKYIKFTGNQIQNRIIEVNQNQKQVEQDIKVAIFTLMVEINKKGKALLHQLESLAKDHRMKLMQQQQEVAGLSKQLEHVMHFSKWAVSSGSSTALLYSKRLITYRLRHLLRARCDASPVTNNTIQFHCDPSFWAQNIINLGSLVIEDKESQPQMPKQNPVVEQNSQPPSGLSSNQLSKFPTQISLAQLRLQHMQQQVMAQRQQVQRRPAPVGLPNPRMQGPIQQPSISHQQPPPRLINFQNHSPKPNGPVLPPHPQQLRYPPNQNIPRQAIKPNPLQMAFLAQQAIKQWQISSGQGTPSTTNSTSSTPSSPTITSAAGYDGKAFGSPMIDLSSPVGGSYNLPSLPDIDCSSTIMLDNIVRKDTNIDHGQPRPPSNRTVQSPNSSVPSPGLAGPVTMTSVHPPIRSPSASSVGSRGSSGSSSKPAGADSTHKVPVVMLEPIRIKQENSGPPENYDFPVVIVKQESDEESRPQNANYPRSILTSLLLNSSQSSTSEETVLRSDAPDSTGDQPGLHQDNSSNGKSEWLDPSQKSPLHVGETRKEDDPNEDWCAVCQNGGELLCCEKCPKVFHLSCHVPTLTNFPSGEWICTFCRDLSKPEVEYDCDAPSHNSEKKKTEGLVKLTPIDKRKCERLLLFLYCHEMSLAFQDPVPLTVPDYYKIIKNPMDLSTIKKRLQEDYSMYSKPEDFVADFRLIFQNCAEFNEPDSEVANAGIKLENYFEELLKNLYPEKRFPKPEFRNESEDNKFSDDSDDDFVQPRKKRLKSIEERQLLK

KASUMI-1 = test: Cell proliferation assay (MTS); assay type: cell-based; settings: Homo sapiens, AML, 48 h
NOMO-1 = test: Cell proliferation assay (MTS); assay type: cell-based; settings: Homo sapiens, AML, 48 h
GLP = target: T4, GLP (Homo sapiens, UniProt Q9H9B1); test: Epigenetics selectivity panel (BPS Bioscience); assay type: biochemical; settings: for IC50: chemiluminescence assay carried out at BPS
T4 construct: purchased BPS Bioscience (contract panel)
T4 sequence (Q9H9B1 1-1298): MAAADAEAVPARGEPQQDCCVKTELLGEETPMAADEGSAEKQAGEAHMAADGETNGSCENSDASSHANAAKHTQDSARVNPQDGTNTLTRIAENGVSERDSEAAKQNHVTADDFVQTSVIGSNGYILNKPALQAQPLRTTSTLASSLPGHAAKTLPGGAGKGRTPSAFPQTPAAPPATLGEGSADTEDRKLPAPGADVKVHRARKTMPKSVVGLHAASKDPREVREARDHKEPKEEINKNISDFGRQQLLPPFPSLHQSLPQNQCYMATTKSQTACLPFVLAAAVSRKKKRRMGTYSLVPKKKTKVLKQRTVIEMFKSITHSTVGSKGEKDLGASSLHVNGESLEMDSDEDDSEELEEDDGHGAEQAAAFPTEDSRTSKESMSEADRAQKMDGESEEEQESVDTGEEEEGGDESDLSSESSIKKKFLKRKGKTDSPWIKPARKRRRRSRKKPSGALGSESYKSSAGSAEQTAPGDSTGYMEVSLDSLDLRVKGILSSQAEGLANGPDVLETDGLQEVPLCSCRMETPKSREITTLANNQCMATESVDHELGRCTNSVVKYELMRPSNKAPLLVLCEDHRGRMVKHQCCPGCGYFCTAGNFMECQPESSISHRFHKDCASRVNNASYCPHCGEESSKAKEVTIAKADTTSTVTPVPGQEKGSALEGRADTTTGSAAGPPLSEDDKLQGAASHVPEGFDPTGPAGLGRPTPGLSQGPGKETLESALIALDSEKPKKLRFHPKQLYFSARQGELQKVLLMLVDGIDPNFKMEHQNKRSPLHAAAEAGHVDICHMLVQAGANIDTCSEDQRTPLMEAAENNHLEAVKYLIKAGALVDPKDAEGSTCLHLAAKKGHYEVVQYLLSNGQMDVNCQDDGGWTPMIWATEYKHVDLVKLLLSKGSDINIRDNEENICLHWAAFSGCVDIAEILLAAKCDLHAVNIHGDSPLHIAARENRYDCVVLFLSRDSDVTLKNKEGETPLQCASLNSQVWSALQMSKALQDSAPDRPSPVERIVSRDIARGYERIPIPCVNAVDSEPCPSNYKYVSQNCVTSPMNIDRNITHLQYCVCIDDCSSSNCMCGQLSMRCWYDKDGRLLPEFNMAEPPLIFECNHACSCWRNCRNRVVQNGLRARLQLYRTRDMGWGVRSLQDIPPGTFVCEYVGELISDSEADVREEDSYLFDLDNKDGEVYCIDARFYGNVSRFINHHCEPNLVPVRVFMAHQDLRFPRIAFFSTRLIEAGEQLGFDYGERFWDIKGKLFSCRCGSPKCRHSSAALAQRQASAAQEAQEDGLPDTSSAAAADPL

UM-UC-7 = test: Cell proliferation assay (MTS); assay type: cell-based; settings: Homo sapiens; Bladder
PRMT1 = target: T5, PRMT1 (Homo sapiens, UniProt Q99873); test: Epigenetics selectivity panel (BPS Bioscience); assay type: biochemical
T5 construct: purchased BPS Bioscience (contract panel)
T5 sequence (Q99873 whole entry): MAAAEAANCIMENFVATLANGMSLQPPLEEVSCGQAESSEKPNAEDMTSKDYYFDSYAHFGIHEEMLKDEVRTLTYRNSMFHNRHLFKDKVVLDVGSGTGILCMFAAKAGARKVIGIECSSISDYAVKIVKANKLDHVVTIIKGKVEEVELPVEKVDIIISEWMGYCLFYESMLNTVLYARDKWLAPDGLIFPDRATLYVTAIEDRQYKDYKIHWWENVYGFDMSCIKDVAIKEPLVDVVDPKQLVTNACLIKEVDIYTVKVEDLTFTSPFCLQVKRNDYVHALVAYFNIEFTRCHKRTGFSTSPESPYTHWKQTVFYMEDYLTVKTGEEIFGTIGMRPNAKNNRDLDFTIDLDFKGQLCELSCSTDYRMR

LAL-CUN-2 = test: Cell proliferation assay (MTS); assay type: cell-based; settings: Homo sapiens; ALL, 48 h; read-out: GI50
MLL-WARD = target: T6, MLL-WARD (Homo sapiens, UniProt Q03164); test: Epigenetics selectivity panel (BPS Bioscience); assay type: biochemical
T6 construct: purchased DiscoverX KINOMEscan (kinases); BPS Bioscience (epigenetic targets)

SK-MEL-19 = test: Cell proliferation assay (MTS); assay type: cell-based; settings: Homo sapiens, SK-MEL19; Melanoma
[1] = Plasma protein binding (equilibrium dialysis); assay type: in vitro ADME; settings: pH 7.4
Method: This study was conducted by Equilibrium Dialysis at Wuxi (http://www.wuxi.com/). HT-Dialysis plate (Model HTD 96 b, Cat# 1006) and the dialysis membrane (molecular weight cut off 12-14 kDa, Cat# 1101) were purchased from HT Dialysis LLC (Gales Ferry, CT). Human plasma and CD-1 mouse plasma from Bioreclamation were thawed prior to experiment and the pH was adjusted at 7.4. Concentrations of test compounds in starting solution (before dialysis), plasma side of the membrane and buffer side of the membrane were quantified by LC-MS/MS (Shimadzu LC 20-AD - API 4000) methodologies, using peak area ratio of analyte/internal standard. The fraction of unbound, bound and recovery were calculated.
Results are the average of three replicates. […]
The pH was adjusted to 7.40±0.05 using either 1 M sodium hydroxide or 1 M hydrochloric acid. Test compounds were diluted to 0.2 mM in DMSO and further diluted prior to testing to 10 µM in PBS, pH 7.4 (final 5% DMSO). The assay was performed using a 96-well multiscreen-IP PAMPA plate (Millipore, Cat. # MAIPN4510), whose PVDF membrane was pre-coated with 5 µL of 1% lecithin/dodecane mixture. 150 µL of PBS solution containing the test compounds were added to the donor chamber. Blank PBS (300 µL) was also added to the PTFE acceptor plate, and the donor and acceptor plates were assembled and incubated for 4 h at room temperature with shaking at 150 rpm. […]

SK-MEL-147 = test: Cell proliferation assay (MTS); assay type: cell-based; settings: Homo sapiens, Melanoma
MOLT-4 = test: Cell proliferation assay (MTS); assay type: cell-based; settings: Homo sapiens, ALL, 48 h
LSD1 = target: T7, LSD1 (Homo sapiens, UniProt O60341); test: Epigenetics selectivity panel (BPS Bioscience); assay type: biochemical
T7 construct: purchased DiscoverX KINOMEscan (kinases); BPS Bioscience (epigenetic targets)

PRMT8 = target: T8, PRMT8 (Homo sapiens, UniProt Q9NR22); test: Epigenetics selectivity panel (BPS Bioscience); assay type: biochemical
T8 construct: purchased DiscoverX KINOMEscan (kinases); BPS Bioscience (epigenetic targets)
T8 sequence (Q9NR22 whole entry): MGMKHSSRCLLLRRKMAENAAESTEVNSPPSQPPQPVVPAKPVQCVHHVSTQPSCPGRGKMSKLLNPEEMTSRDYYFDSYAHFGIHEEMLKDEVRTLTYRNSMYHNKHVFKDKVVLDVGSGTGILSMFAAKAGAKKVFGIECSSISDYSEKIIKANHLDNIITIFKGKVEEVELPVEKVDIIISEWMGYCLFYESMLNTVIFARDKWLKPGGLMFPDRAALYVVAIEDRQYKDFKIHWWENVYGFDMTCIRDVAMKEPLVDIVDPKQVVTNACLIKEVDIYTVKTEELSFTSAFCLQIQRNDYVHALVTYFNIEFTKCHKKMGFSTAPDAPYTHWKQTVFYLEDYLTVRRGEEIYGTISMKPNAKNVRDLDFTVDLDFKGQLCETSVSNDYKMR

SMILES | GI50 (A375) | inhibition at 10 µM (BAZ2B) | GI50 (HEL) | GI50 (NALM-20) | inhibition at 10 µM (JMJD2A) | inhibition at 10 µM (TRIM24) | GI50 (KASUMI-1) | GI50 (NOMO-1) | IC50 (GLP) | GI50 (UM-UC-7) | inhibition at 10 µM (PRMT1) | GI50 (LAL-CUN-2) | inhibition at 10 µM (MLL-WARD) | GI50 (SK-MEL-19) | fraction unbound ([1]; CD-1, mouse) | fraction unbound ([1]; human) | GI50 (SK-MEL-147) | GI50 (MOLT-4) | inhibition at 10 µM (LSD1) | inhibition at 10 µM (PRMT8) | other results
COc1cc2c(NC3CCN(C)CC3)cc(-c3ccc(C)o3)nc2cc1OCCCN1CCCC1 [CM-272, 6-methoxy-2-(5-methyl-2-furyl)-N-(1-methyl-4-piperidyl)-7-(3-pyrrolidin-1-ylpropoxy)quinolin-4-amine] | 357 nM | 0% | > 10000 nM | > 5000 nM | 1% | 0% | 7140 nM | 3560 nM | 2 nM | 964 nM | 73% | 664 nM | 4% | 1040 nM | 0.25 | 0.244 | 422 nM | > 5000 nM | 0% | 11% | % Inhibition at 10 μM: GLP (GLP; 10 µM): 100% and 75%; IC50 (PRMT1; BPS): 4000 nM
COc1cc2c(NCC3CCN(C)CC3)cc(-c3ccc(C)o3)nc2cc1OCCCN1CCCC1 [CM-579, 6-methoxy-2-(5-methyl-2-furyl)-N-[(1-methyl-4-piperidyl)methyl]-7-(3-pyrrolidin-1-ylpropoxy)quinolin-4-amine] | 48 nM | 0% | > 10000 nM | > 10000 nM | 30% | 0% | 5210 nM | > 10000 nM | > 10000 nM | 531 nM | 43% | 365 nM | 2% | 161 nM | 0.046 | 0.147 | 32 nM | > 10000 nM | 24% | 12% | 

Source: article PMC5458547, “Discovery of first-in-class reversible dual small molecule inhibitors against G9a and DNMTs in hematological malignancies” (Nature Communications, 2017)
